Biological target: T1, constitutively active Flt3 in EOL-1 cells (Homo sapiens, UniProt P36888)
T1 construct: expresses an endogenous, constitutively active Flt3; endogenous in cells; host or cells: EOL-1 hematopoietic cell line
T1 sequence (P36888 27-993): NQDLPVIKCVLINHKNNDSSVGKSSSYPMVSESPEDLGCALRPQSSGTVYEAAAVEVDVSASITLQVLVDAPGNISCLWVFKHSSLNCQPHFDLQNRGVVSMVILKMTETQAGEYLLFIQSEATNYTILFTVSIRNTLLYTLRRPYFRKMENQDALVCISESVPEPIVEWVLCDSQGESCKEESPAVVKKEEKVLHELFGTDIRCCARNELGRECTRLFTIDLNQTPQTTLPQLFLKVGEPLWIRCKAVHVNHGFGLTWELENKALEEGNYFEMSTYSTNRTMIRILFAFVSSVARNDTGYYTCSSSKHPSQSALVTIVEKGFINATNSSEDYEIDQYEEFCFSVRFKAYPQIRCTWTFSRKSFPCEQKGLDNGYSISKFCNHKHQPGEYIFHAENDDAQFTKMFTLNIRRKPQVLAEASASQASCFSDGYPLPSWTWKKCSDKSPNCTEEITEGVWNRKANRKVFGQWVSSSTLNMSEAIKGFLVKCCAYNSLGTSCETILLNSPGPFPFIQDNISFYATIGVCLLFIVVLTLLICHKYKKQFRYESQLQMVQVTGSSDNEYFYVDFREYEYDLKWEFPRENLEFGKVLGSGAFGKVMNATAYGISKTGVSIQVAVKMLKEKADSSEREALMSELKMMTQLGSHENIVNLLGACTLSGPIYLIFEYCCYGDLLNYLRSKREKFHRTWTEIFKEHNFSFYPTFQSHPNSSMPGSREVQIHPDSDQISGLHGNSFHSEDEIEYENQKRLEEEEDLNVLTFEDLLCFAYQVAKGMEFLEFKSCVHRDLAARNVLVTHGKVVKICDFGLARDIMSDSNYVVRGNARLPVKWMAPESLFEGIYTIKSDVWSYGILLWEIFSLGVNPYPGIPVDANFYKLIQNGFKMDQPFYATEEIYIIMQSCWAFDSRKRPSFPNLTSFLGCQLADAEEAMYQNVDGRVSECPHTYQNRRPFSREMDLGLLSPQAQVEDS
Experiment: Flt3 inhibitor effect on phospho-Flt3(Tyr591) staining in EOL-1 cells by flow cytometry
Type: cell-based
Conditions: serum-starved EOL-1 cells, inhibitor 4 hours at 37° C.; FIG. 6
Method: Flt3(Tyr591) phosphospecific monoclonal antibody CST #25-54 was used in flow cytometry to detect phospho-Flt3(Tyr591) in the EOL-1 hematopoietic cell line that expresses an endogenous, constitutively active Flt3. Serum-starved cells were incubated with or without the small molecule Flt3 inhibitor AG1296 for 4 hours at 37° C. The cells then were fixed with 2% paraformaldehyde for 10 minutes at 37° C. followed by cell permeabilization 90% with methanol for 30 minutes on ice. The fixed cells were then stained with the Alexa 488-conjugated Flt3 primary antibody for 1 hour at room temperature. The cells were then analyzed on a Beckman Coulter EPICS-XL flow cytometer.

COc1cc2ncc(-c3ccccc3)nc2cc1OC [AG1296]
Activity against Flt3 (in words): active against Flt3
Population of cells showing less staining with the phospho-Flt3(Tyr591) antibody in the presence of the drug: approximately 30 % of the total cells

Reference: patent US7183385B2, “Phospho-specific antibodies to Flt3 and uses thereof” (Cell Signaling Technology, Inc., priority 2002, dated 2007)
